Where “and” joins values, the source holds several entries; their conditions need not be identical. Equal entries are not always repeated.
Assays:
Format in all cases: cell-based
[1] = test system: Botrytis cinerea
[2] = test system: Botrytis cinerea; remark: listed apart in the source
[3] = test system: Fusarium graminearum
[4] = test system: Fusarium graminearum; remark: listed apart in the source

## OeDef7 (RICESLSHRFKGPCVRRGNCAAVCQTEGFPGGLCRGFRRRCFCTKHC; listed as Olea europaea)
[1]
  IC50: 2000 to 3000 nM and 3000 to 4000 nM
[2]
  MLC: 4 µM and 6 µM
[3]
  IC50: 1000 to 1500 nM and 2000 to 3000 nM
[4]
  MLC: 3 µM and 6 µM
